# Measurements from patent publication US11028089B2, “Pyrimido-diazepinone kinase scaffold compounds and methods of treating DCLK1/2-mediated disorders” (DANA-FARBER CANCER INSTITUTE, INC., priority 2016, dated 2021).
# Molecular target: T1, recombinant DCLK1 (Homo sapiens, UniProt O15075)
# T1 construct: N-terminally 6-His tagged human DCLK1 residues G351-H689 was prepared; 6-His (N); made in house; host or cells: E. coli BL21(DE3), co-transformed with lambda phosphatase
# T1 sequence (O15075 351-689 isoform O15075-2): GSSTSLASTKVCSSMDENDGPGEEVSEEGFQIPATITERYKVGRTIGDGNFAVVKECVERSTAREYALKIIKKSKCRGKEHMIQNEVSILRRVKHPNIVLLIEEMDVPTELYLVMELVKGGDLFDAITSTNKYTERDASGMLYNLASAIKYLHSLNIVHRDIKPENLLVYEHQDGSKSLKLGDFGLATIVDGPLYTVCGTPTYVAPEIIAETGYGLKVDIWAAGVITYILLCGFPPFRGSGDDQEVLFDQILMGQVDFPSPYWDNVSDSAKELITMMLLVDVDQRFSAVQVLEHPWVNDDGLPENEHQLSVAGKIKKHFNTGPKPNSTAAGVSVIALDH
# Experiment: DCLK1 mobility shift assay (gel shift assay)
# Format: biochemical
# Conditions: 30 nM recombinant DCLK1, 100 μM ATP, 1 μM FAM-labeled peptide substrate, two hours at room temperature, 8-point dose-response
# Procedure: The DNA construct consisting of N-terminally 6-His tagged human DCLK1 residues G351-H689 was prepared. Thus prepared plasmid was co-transformed with lambda phosphatase under chloramphenicol selection into BL21(DE3) E. coli cells.
# Protein expression was induced from the DCLK1 plasmid with 0.6 mM IPTG and expression was allowed to continue for about 10 hours at a temperature of 18° C. Cells was harvested by centrifugation and resuspended in Lysis buffer with protease inhibitors (1 mM Benzamidine and 1 mM PMSF). Lysis was performed by passing 3 times through a homogenizer. Lysate was centrifuged at 20K for 1 hour at a temperature of 4° C. and the supernatant was filtered through a 0.2 micron membrane. Protein was loaded on nickel (Ni)-NTA resin, washed with Wash buffers, and eluted with 300 mM imidazole buffer. […]
# DCLK1 kinase activity was measured in vitro using an electrophoretic mobility shift assay. […] Substrate and product peptides present in each sample were electrophoretically separated and detected using 12-channel LabChip3000 microfluidic capillary electrophoresis instrument (Caliper Life Sciences, Waltham Mass., USA). The change in the relative fluorescence intensities of substrate and product peaks (reflecting enzyme activity) was measured. Capillary electrophoregrams were analyzed using HTS Well Analyzer software (Caliper Life Sciences, Waltham Mass., USA).
row,Compound,IC50 against DCLK1 compared with the positive control (FIG. 2)
1,"COc1cc(N2CCN(C)CC2)ccc1Nc1ncc2c(n1)N(C)c1ccccc1C(=O)N2CC(F)(F)F [Compound 2, 2-((2-methoxy-4-(4-methylpiperazin-1-yl)phenyl)amino)-11-methyl-5-(2,2,2-trifluoroethyl)-5,11-dihydro-6H-benzo[e]pyrimido[5,4-b][1,4]diazepin-6-one]",substantially decreased from the IC50 value of the positive control
2,"COc1cc(C(=O)NC2CCN(C)CC2)ccc1Nc1ncc2c(n1)N(C)c1ccccc1C(=O)N2CC(F)(F)F [Compound 8, 3-methoxy-4-((11-methyl-6-oxo-5-(2,2,2-trifluoroethyl)-6,11-dihydro-5H-benzo[e]pyrimido[5,4-b][1,4]diazepin-2-yl)amino)-N-(1-methylpiperidin-4-yl)benzamide]",substantially decreased from the IC50 value of the positive control
